# Measured values reported in US20070066572A1, “Neuroprotection by positively-charged nitroxides” (priority 2005, published 2007).
# Tests used:
# [1] = tested on: hSOD1-G93A mice; assay: In vivo attenuation of ALS symptoms in transgenic G93A-SOD1 mice; conditions: 40 mg/kg or about 1 mg/mouse/day in drinking water
# Text: Animal model: A transgenic mouse line overexpressing mutant G93A-SOD1 gene (TgN(SOD1-G93A)1Gur, herein called hSOD1-G93A, a high expression mouse line) and the mating pairs were purchased from Jackson Laboratory (Bar Harbor, Me.). Mice were housed and bred as described previously (Liu R, et al., “Enhanced oxygen radical production in a transgenic mouse model of familial amyotrophic lateral sclerosis,” Ann. Neurol. 44:763-70 (1998)) and in accordance with the University of North Dakota Animal Care and Use Committee guidelines.
# At age 40-50 days, transgenic littermates (wild-type normal mice and hSOD1-G93A mice) were divided into three groups (n=10) and administered with vehicle alone (regular drinking water), Mito-Tempol (40 mg/kg or about 1 mg/mouse/day) or Tempol (40 mg/kg or about 1 mg/mouse/day), respectively. The onset of disease was defined as the day when a sharp decrease in muscle strength was detected. The initial symptoms of hind leg paralysis was considered as the disease progression as well.
# [2] = tested on: Bovine aortic endothelial cells (BAECs); assay: Glu/GO-induced caspase-3 activity (apoptosis) in BAECs; type: cell-based
# Description: Cell line: Bovine aortic endothelial cells (BAECs; American Type Culture Collection) were grown to confluence in DMEM (Calbiochem; San Diego, Calif.) containing 10% fetal bovine serum (FBS; Invitrogen; Carlsbad, Calif.) insulin (10 μg/ml; Invitrogen), transferrin (5 μg/ml; Invitrogen), glutamine (4 mM; Sigma-Aldrich), penicillin (100 units/ml; Sigma-Aldrich) and streptomycin (100 μg/ml; Sigma-Aldrich) and were incubated at 37° C. in a humidified atmosphere of 5% CO2 and 95% air. The BAECs were used between passages four and twelve, as described by Balla G, et al., “Ferritin: a cytoprotective antioxidant strategem of endothelium,” J. Biol. Chem. 267:18148-18153 (1992). On the day of treatment, the medium was replaced with DMEM containing 2% FBS.
# Glucose/Glucose Oxidase (Glu/GO): GO was obtained from Sigma Aldrich (Milwaukee, Wis.); 13-hydroperoxyoctadecadienoic acid (13-HpODE, a lipoxygenase-catalyzed oxidative metabolite of linolieic acid) and β-hydroxyoctadecadienoic acid (13-HODE, […]) were obtained from Cayman Chemical Co. (Ann Arbor, Mich.); 2′,7′-dichlorodihydrofluorescein diacetate (DCFH-DA) was obtained from Molecular Probes (Eugene, Oreg.); N-carbobenzoxyl-L-leucinyl-L-norleucinal (MG-132) was obtained from Biomol (Plymouth Meeting, Pa.); and clastolactacystin-α-lactone (Lac) was obtained from Sigma Aldrich.
# BAECs were incubated with Glu/GO (20 μM), 13-HpODE (25 μM) or 13-HODE (25 μM) for different time periods (0, 2, 4, 8 or 16 hours).
# Caspase-3 Activity: After treatment with Glu-GO and antioxidants, cells were washed twice with Dulbecco's phosphate-buffered saline (DPBS) and lysed with cell lysis buffer. Caspase-3 activity was measured with acetyl Asp-Glu-Val-Asp 7-amido-4-methylcoumarin (Ac-DEVD-AFC), as described in a kit from Sigma Aldrich. Caspase-3 hydrolyzes Ac-DEVD-AFC to release a fluorescent moiety, 7-amino-4-methylcoumarin (AMC). Briefly, treated cells were suspended in 100 μl of lysis buffer and passed through a 24-guage needle 10 times to ensure complete lysis. The resulting lysate was centrifuged at 4° C. at 10,000 rmp. […]
smiles,measurement,setting,value
CC1(C)CC(OCCCCC[P+](c2ccccc2)(c2ccccc2)c2ccccc2)CC(C)(C)N1[O].[Br-] [Mito-Tempol],disease progression,[1]; FIG. 2,delayed disease progression
same,lifespan,[1]; FIG. 3,increased the lifespan
same,running activity as measured by Rotarod (motor function),[1]; FIG. 4,promoted the running activity
same,Glu/GO-mediated caspase-3 activation,"[2]; BAECs pretreated at 0.5 and 1 μM, Glu/GO eight hours, FIG. 5",greatly inhibited
same,potency in inhibiting peroxide-induced apoptosis relative to Tempol,"[2]; BAECs, Glu/GO, FIG. 5",more potent than Tempol
same,endothelial oxidative damage and apoptosis,[2]; Mito-Tempol prepared by the modified method,inhibited endothelial oxidative damage and apoptosis
